# US7569572B2, “Pyrazolo[4,3-D]pyrimidines” (Pfizer Inc, priority 2004, dated 2009)
# pIC50: −log10 of the molar value. Structures can show the parent of a compound that is named as a salt.
# Biological target: T1, human platelet PDE5 (Homo sapiens, UniProt O76074)
# T1 construct: utilizes PDE5 isolated from human platelets; from tissue; host or cells: human platelets
# Test: Method A: PDE-5 Inhibition Scintillation Proximity Assay (SPA) - Human Platelet
# Assay type: biochemical
# Conditions: cGMP substrate 500 nM, PDE5 isolated from human platelets
# Text: Method A: PDE-5 Inhibition Scintillation Proximity Assay (SPA)—Human Platelet
# The assay measures the inhibition of human platelet PDE5 enzyme activity by a test compound in an in vitro assay that utilizes PDE5 isolated from human platelets. The PDE5 enzyme can be isolated from platelets essentially by a modification of the method of Thompson, W J et al.; Biochemistry 18(23), 5228-5237, 1979, as described by Ballard S A et al.; J. Urology 159(6), 2164-2171, 1998. PDE5 catalyzes the hydrolysis of [^3H]cGMP to the 5′ nucleotide [^3H]GMP. [^3H]GMP binds to yttrium silicate SPA beads and is detected by scintillation counting. […] The inhibition of enzyme activity is calculated relative to total PDE5 activity of uninhibited controls.
# PDE5 IC50 Assay: 96-Well Microtiter Plate Format
# Buffer A: 20 mM Tris-HCl, 5 mM MgCl2, pH 7.4
# Buffer B: 2 mg/ml BSA in Buffer A (enzyme buffer)
# cGMP substrate: Final concentration of 500 nM in assay
# The amount of ^3H-labeled substrate added depends upon the specific activity of [^3H]cGMP, and it is diluted with a 10 mM stock of cold cGMP in Buffer A for a final substrate concentration of 500 nM in the assay.
# PDE enzyme: Prepared in Buffer B. The dilution factor is determined by enzyme activity.
# SPA beads: 20 mg/ml suspension prepared in dH2O.
# Stocks of standard and test compounds are prepared at 5 mM in 100% DMSO. Compounds are serially diluted in separate dilution plates using a 10-point ½ log dilution format. 2 μl of the compound dilutions are added in duplicate to the wells of the assay plate; 2 μl of 100% DMSO are added to designated control wells. 25 μl of Buffer A are added to all wells. 25 μl of Buffer B are added to the negative control wells, and 25 μl of enzyme are added to the remaining wells. 50 μl of substrate are added to each well. Plates are sealed and incubated for 60 minutes on a plate shaker at 30 C. 50 μl of SPA beads are added to stop the reaction. The plates are again sealed and shaken for 15 minutes to allow the beads to bind the GMP product. The beads are allowed to settle for 30 minutes and then read on a NXT TopCount. Data is analyzed with the ECADA application. In this analysis, % inhibition is calculated: (mean maximum−compound value/(mean maximum−mean minimum)×100. IC50s are determined from sigmoid dose-response curves of enzyme activity vs compound concentration.
row,SMILES,pIC50
1,"CCOCCn1nc(CNS(C)(=O)=O)c2nc(N(C)C)nc(Nc3cc(C)ccn3)c21 [Example 2, N-[5-dimethylamino-1-(2-ethoxyethyl)-7-(4-methylpyridin-2-ylamino)-1H-pyrazolo[4,3-d]pyrimidin-3-ylmethyl]methanesulfonamide]",8.90
2,"CCNCc1nn(CCOCC)c2c(Nc3cc(C)ccn3)nc(N(C)C)nc12 [Example 31, 1-(2-ethoxyethyl)-3-(ethylaminomethyl)-N^5,N^5-dimethyl-N^7-(4-methylpyridin-2-yl)-1H-pyrazolo[4,3-d]pyrimidine-5,7-diamine]",8.47
3,"CCNc1nc(Nc2cc(C)ccn2)c2c(n1)c(CN(C)C(C)=O)nn2CCOCC [Example 15, N-[1-(2-ethoxyethyl)-5-ethylamino-7-(4-methylpyridin-2-ylamino)-1H-pyrazolo[4,3-d]pyrimidin-3-ylmethyl]-N-methylacetamide]",9.32
4,CCOCCn1nc(CN2CCCC2)c2nc(N(C)C)nc(Nc3cc(C)ccn3)c21 [Example 25],8.28
5,CCOCCn1nc(CN(C)C(C)=O)c2nc(N(C)C)nc(Nc3cc(C)ccn3)c21 [Example 13],9.40
6,"CCOCCn1nc(CNC)c2nc(N(C)C)nc(Nc3cnccn3)c21 [Example 17, 1-(2-ethoxyethyl)-N^5,N^5-dimethyl-3-(methylaminomethyl)-N^7-(pyrazin-2-yl)-1H-pyrazolo[4,3-d]pyrimidine-5,7-diamine hydrochloride]",< 7.00
7,"CCOCCn1nc(CNC(=O)CC)c2nc(N(C)C)nc(Nc3cc(C)ccn3)c21 [Example 9, N-[5-dimethylamino-1-(2-ethoxyethyl)-7-(4-methylpyridin-2-ylamino)-1H-pyrazolo[4,3-d]pyrimidin-3-ylmethyl]propionamide]",9.48
8,"CCOCCn1nc(CNC(C)=O)c2nc(N(C)C)nc(Nc3cc(C)ccn3)c21 [Example 6, N-[5-dimethylamino-1-(2-ethoxyethyl)-7-(4-methylpyridin-2-ylamino)-1H-pyrazolo[4,3-d]pyrimidin-3-ylmethyl]acetamide]",9.41
9,"CCOCCn1nc(CNC(=O)CO)c2nc(N(C)C)nc(Nc3cc(C)ccn3)c21 [Example 4, N-[5-dimethylamino-1-(2-ethoxyethyl)-7-(4-methylpyridin-2-ylamino)-1H-pyrazolo[4,3-d]pyrimidin-3-ylmethyl]-2-hydroxyacetamide]",9.11
10,"CCNc1nc(Nc2cc(C)ccn2)c2c(n1)c(CNC(=O)CC)nn2CCOCC [Example 11, N-[1-(2-ethoxyethyl)-5-ethylamino-7-(4-methylpyridin-2-ylamino)-1H-pyrazolo[4,3-d]pyrimidin-3-ylmethyl]propionamide]",9.28
11,"CCOCCn1nc(CN2CCOCC2)c2nc(N(C)C)nc(Nc3cc(C)ccn3)c21 [Example 30, 1-(2-ethoxyethyl)-N^5,N^5-dimethyl-3-[(4-morpholino)methyl]-N^7-(4-methylpyridin-2-yl)-1H-pyrazolo[4,3-d]pyrimidine-5,7-diamine]",8.97
12,CCOCCn1nc(CN(C)C)c2nc(N(C)C)nc(Nc3cc(C)ccn3)c21 [Example 28],8.16
13,"CCOCCn1nc(CNC(=O)CN(C)C)c2nc(N(C)C)nc(Nc3cc(C)ccn3)c21 [Example 1, 2-Dimethylamino-N-[5-dimethylamino-1-(2-ethoxyethyl)-7-(4-methylpyridin-2-ylamino)-1H-pyrazolo[4,3-d]pyrimidin-3-ylmethyl]acetamide]",8.95
14,"CCOCCn1nc(CN2CCNCC2)c2nc(N(C)C)nc(Nc3cc(C)ccn3)c21 [Example 40, 1-(2-ethoxyethyl)-N^5,N^5-dimethyl-N^7-(4-methylpyridin-2-yl)-3-(piperazin-1-ylmethyl)-1H-pyrazolo[4,3-d]pyrimidine-5,7-diamine hydrochloride]",8.24
15,CCOCCn1nc(CN(C)C(C)=O)c2nc(NC)nc(Nc3cc(C)ccn3)c21 [Example 14],8.26
16,CCNc1nc(Nc2cc(C)ccn2)c2c(n1)c(CNS(C)(=O)=O)nn2CCOCC [Example 3],8.96
17,CCOCCn1nc(CNCCOC)c2nc(N(C)C)nc(Nc3cc(C)ccn3)c21 [Example 29],8.48
18,"CCOCCn1nc(CNC)c2nc(N(C)CCO)nc(Nc3cc(C)ccn3)c21 [Example 36, 2-{[1-(2-ethoxyethyl)-3-(methylaminomethyl)-7-(4-methylpyridin-2-ylamino)-1H-pyrazolo[4,3-d]pyrimidin-5-yl]methylamino}ethanol hydrochloride]",6.73
19,"CCOCCn1nc(CN(C)C(C)=O)c2nc(N(C)C)nc(Nc3ccncn3)c21 [Example 16, N-[5-Dimethylamino-1-(2-ethoxyethyl)-7-(pyrimidin-4-ylamino)-1H-pyrazolo[4,3-d]pyrimidin-3-ylmethyl]-N-methylacetamide]",8.23
20,"CCOCCn1nc(CNCCOC)c2nc(N(C)C)nc(Nc3ccncn3)c21 [Example 33, 1-(2-ethoxyethyl)-3-[(2-methoxyethylamino)methyl]-N^5,N^5-dimethyl-N^7-pyrimidin-4-yl-1H-pyrazolo[4,3-d]pyrimidine-5,7-diamine]",< 7.00
21,CCOCCn1nc(CN2CC[C@@H](OC)C2)c2nc(N(C)C)nc(Nc3cc(C)ccn3)c21 [Example 22],8.49
22,"CCOCCn1nc(CN2CCN(C)CC2)c2nc(N(C)C)nc(Nc3cc(C)ccn3)c21 [Example 18, 1-(2-Ethoxyethyl)-N^5,N^5-dimethyl-3-[(4-methylpiperazin-1-yl)methyl]-N^7-(4-methylpyridin-2-yl)-1H-pyrazolo[4,3-d]pyrimidine-5,7-diamine hydrochloride]",8.64
23,CCNCc1nn(CCOCC)c2c(Nc3ccc(C)cn3)nc(N(C)C)nc12 [Example 26],8.47
24,CCNc1nc(Nc2cc(C)ccn2)c2c(n1)c(CNC(=O)CO)nn2CCOCC [Example 5],9.24

# More lines, now with the values ahead:
row,pIC50,SMILES
1,< 7.00,"CCOCCn1nc(CNC)c2nc(N(C)C)nc(Nc3ccncn3)c21 [Example 35, 1-(2-ethoxyethyl)-N^5,N^5-dimethyl-3-(methylaminomethyl)-N^7-pyrimidin-4-yl-1H-pyrazolo[4,3-d]pyrimidine-5,7-diamine hydrochloride]"
2,8.82,"CCCN(Cc1nn(CCOCC)c2c(Nc3cc(C)ccn3)nc(N(C)C)nc12)C(C)=O [Example 39, N-[5-Dimethylamino-1-(2-ethoxyethyl)-7-(4-methylpyridin-2-ylamino)-1H-pyrazolo[4,3-d]pyrimidin-3-ylmethyl]-N-propylacetamide]"
3,8.60,CCOCCn1nc(CNC(=O)CC)c2nc(NC)nc(Nc3cc(C)ccn3)c21 [Example 10]
4,8.68,CCOCCn1nc(CN2CCC[C@H]2COC)c2nc(N(C)C)nc(Nc3cc(C)ccn3)c21 [Example 20]
5,7.63,"CCOCCn1nc(CN(CC)CC)c2nc(N(C)C)nc(Nc3ccncn3)c21 [Example 34, 3-(Diethylaminomethyl)-1-(2-ethoxyethyl)-N^5,N^5-dimethyl-N^7-(pyrimidin-4-yl)-1H-pyrazolo[4,3-d]pyrimidine-5,7-diamine]"
6,8.70,CCOCCn1nc(CN2CC[C@H](OC)C2)c2nc(N(C)C)nc(Nc3cc(C)ccn3)c21 [Example 21]
7,8.24,CCCNCc1nn(CCOCC)c2c(Nc3cc(C)ccn3)nc(N(C)C)nc12 [Example 24]
8,9.23,"CCNc1nc(Nc2cc(C)ccn2)c2c(n1)c(CNC(C)=O)nn2CCOCC [Example 8, N-[1-(2-ethoxyethyl)-5-ethylamino-7-(4-methylpyridin-2-ylamino)-1H-pyrazolo[4,3-d]pyrimidin-3-ylmethyl]acetamide]"
9,8.36,"CCOCCn1nc(CNC)c2nc(N(C)CCOC)nc(Nc3cc(C)ccn3)c21 [Example 37, 1-(2-ethoxyethyl)-N^5-(2-methoxyethyl)-N^5-methyl-3-(methylaminomethyl)-N^7-(4-methylpyridin-2-yl)-1H-pyrazolo[4,3-d]pyrimidine-5,7-diamine hydrochloride]"
10,8.35,CCOCCn1nc(CNC)c2nc(N(C)C)nc(Nc3cc(C)ccn3)c21 [Example 12]
11,< 7.00,"CCNCc1nn(CCOCC)c2c(Nc3ccncn3)nc(N(C)C)nc12 [Example 32, 1-(2-ethoxyethyl)-3-(ethylaminomethyl)-N^5,N^5-dimethyl-N^7-(pyrimidin-4-yl)-1H-pyrazolo[4,3-d]pyrimidine-5,7-diamine]"
12,8.37,CCOCCn1nc(CN2CCC[C@@H]2COC)c2nc(N(C)C)nc(Nc3cc(C)ccn3)c21 [Example 19]
13,8.05,CCOCCn1nc(CNC(C)=O)c2nc(NC)nc(Nc3cc(C)ccn3)c21 [Example 7]
